Measurements taken from ChEMBL document CHEMBL1201861, “Genomics of Drug Sensitity in Cancer screening data, Wellcome Trust Sanger Institute”.

Legend:
Format in all cases: functional, cell-based
[1] = system: COLO-792; experiment: cells; details: Homo sapiens
Description: SANGER: Inhibition of human COLO-792 cell growth in a cell viability assay.

[2] = system: Calu-3; experiment: cells; details: Homo sapiens;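 also: growth inhibition of human Calu-3 cells, determined with a cell viability assay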
Description: SANGER: Inhibition of human Calu-3 cell growth in a cell viability assay.

[3] = system: D-392MG; experiment: cells; details: Homo sapiens
[4] = system: DMS-273; experiment: cells; details: Homo sapiens
Description: SANGER: Inhibition of human DMS-273 cell growth in a cell viability assay.

[5] = system: Daoy; experiment: cells; details: Homo sapiens;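 also: daoy cell growth inhibition, read out as cell viability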
Description: SANGER: Inhibition of human Daoy cell growth in a cell viability assay.

[6] = system: H4; experiment: cells; details: Homo sapiens
Description: SANGER: Inhibition of human H4 cell growth in a cell viability assay.

[7] = system: HCC1954; experiment: cells; details: Homo sapiens;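 also: growth inhibition of human HCC1954 cells, read out with a cell viability assay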
Description: SANGER: Inhibition of human HCC1954 cell growth in a cell viability assay.

[8] = system: HCC 2998; experiment: cells; details: Homo sapiens;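 also: growth inhibition of human HCC2998 cells, measured with a cell viability read-out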
Description: SANGER: Inhibition of human HCC2998 cell growth in a cell viability assay.

[9] = system: HCC38; experiment: cells; details: Homo sapiens;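 also: cell viability assay on the human HCC38 cell line, with IC50 marking the concentration that inhibits cell growth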
Description: SANGER: Inhibition of human HCC38 cell growth in a cell viability assay.

[10] = system: HO-1-N-1; experiment: cells; details: Homo sapiens;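 also: growth inhibition of human HO-1-N-1 cells, read out with a cell viability assay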
Description: SANGER: Inhibition of human HO-1-N-1 cell growth in a cell viability assay.

[11] = system: HOS; experiment: cells; details: Homo sapiens;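 also: growth inhibition of human HOS cells, read out with a cell viability assay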
Description: SANGER: Inhibition of human HOS cell growth in a cell viability assay.

[12] = system: HSC-2; experiment: cells; details: Homo sapiens;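 also: growth inhibition of human HSC-2 cells, read out by a cell viability assay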
Description: SANGER: Inhibition of human HSC-2 cell growth in a cell viability assay.

[13] = system: Huh-7; experiment: cells; details: Homo sapiens;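 also: HuH-7 cell growth inhibition, read out with a cell viability assay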
Description: SANGER: Inhibition of human HuH-7 cell growth in a cell viability assay.

[14] = system: HuP-T3; experiment: cells; details: Homo sapiens;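 also: HuP-T3 cell growth inhibition, read out with a cell viability assay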
Description: SANGER: Inhibition of human HuP-T3 cell growth in a cell viability assay.

[15] = system: HuP-T4; experiment: cells; details: Homo sapiens;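 also: cell viability assay measuring how much HuP-T4 cell growth is inhibited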
Description: SANGER: Inhibition of human HuP-T4 cell growth in a cell viability assay.

[16] = system: KP-N-YN; experiment: cells; details: Homo sapiens;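 also: growth inhibition of KP-N-YN cells, read out with a cell viability assay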
Description: SANGER: Inhibition of human KP-N-YN cell growth in a cell viability assay.

[17] = system: KU-19-19; experiment: cells; details: Homo sapiens
Description: SANGER: Inhibition of human KU-19-19 cell growth in a cell viability assay.

[18] = system: MC-IXC; experiment: cells; details: Homo sapiens;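 also: growth inhibition of MC-IXC cells, read out with a cell viability assay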
Description: SANGER: Inhibition of human MC-IXC cell growth in a cell viability assay.

[19] = system: MDA-MB-231; experiment: cells; details: Homo sapiens
Description: SANGER: Inhibition of human MDA-MB-231 cell growth in a cell viability assay.

[20] = system: MDA-MB-361; experiment: cells; details: Homo sapiens
[21] = system: MEL-HO; experiment: cells; details: Homo sapiens
Description: SANGER: Inhibition of human MEL-HO cell growth in a cell viability assay.

[22] = system: MKN-1; experiment: cells; details: Homo sapiens;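 also: growth inhibition of human MKN1 cells, read out by a cell viability measurement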
Description: SANGER: Inhibition of human MKN1 cell growth in a cell viability assay.

[23] = system: NCI-H1793; experiment: cells; details: Homo sapiens;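 also: cell growth inhibition, read out by a cell viability assay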
Description: SANGER: Inhibition of human NCI-H1793 cell growth in a cell viability assay.

[24] = system: NCI-H2087; experiment: cells; details: Homo sapiens;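 also: growth inhibition determined with a cell viability readout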
Description: SANGER: Inhibition of human NCI-H2087 cell growth in a cell viability assay.

[25] = system: NCI-H358; experiment: cells; details: Homo sapiens;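 also: growth inhibition of NCI-H358 human cells, read out with a cell viability assay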
Description: SANGER: Inhibition of human NCI-H358 cell growth in a cell viability assay.

[26] = system: NCI-H460; experiment: cells; details: Homo sapiens;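 also: cell viability assay scoring growth inhibition of human NCI-H460 cells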
Description: SANGER: Inhibition of human NCI-H460 cell growth in a cell viability assay.

[27] = system: NCI-H522; experiment: cells; details: Homo sapiens;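 also: cell viability assay measuring growth inhibition of human NCI-H522 cells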
Description: SANGER: Inhibition of human NCI-H522 cell growth in a cell viability assay.

[28] = system: NCI-H630; experiment: cells; details: Homo sapiens;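 also: growth inhibition of NCI-H630 cells, read out with a cell viability assay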
Description: SANGER: Inhibition of human NCI-H630 cell growth in a cell viability assay.

[29] = system: NCI-H810; experiment: cells; details: Homo sapiens;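 also: IC50 reflects inhibition of cancer cell line growth, read out with a cell viability assay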
Description: SANGER: Inhibition of human NCI-H810 cell growth in a cell viability assay.

[30] = system: OAW-42; experiment: cells; details: Homo sapiens;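 also: growth inhibition of OAW-42 cells, read out with a cell viability assay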
Description: SANGER: Inhibition of human OAW-42 cell growth in a cell viability assay.

[31] = system: SK-OV-3; experiment: cells; details: Homo sapiens;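 also: growth inhibition of SK-OV-3 human cells, read out with a cell viability assay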
Description: SANGER: Inhibition of human SK-OV-3 cell growth in a cell viability assay.

[32] = system: SN12C; experiment: cells; details: Homo sapiens;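 also: growth inhibition of human SN12C cells, measured by a cell viability assay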
Description: SANGER: Inhibition of human SN12C cell growth in a cell viability assay.

[33] = system: SW1710; experiment: cells; details: Homo sapiens;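 also: growth inhibition of SW1710 cells, determined with a cell viability assay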
Description: SANGER: Inhibition of human SW1710 cell growth in a cell viability assay.

[34] = system: SiHa; experiment: cells; details: Homo sapiens;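 also: Viability-based readout of growth inhibition in SiHa cells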
Description: SANGER: Inhibition of human SiHa cell growth in a cell viability assay.

[35] = system: 23132-87; experiment: cells; details: Homo sapiens
Description: SANGER: Inhibition of human 23132-87 cell growth in a cell viability assay.

[36] = system: 786-0; experiment: cells; details: Homo sapiens
Description: SANGER: Inhibition of human 786-0 cell growth in a cell viability assay.

[37] = system: 8305C; experiment: cells; details: Homo sapiens
Description: SANGER: Inhibition of human 8305C cell growth in a cell viability assay.

[38] = system: A2058; experiment: cells; details: Homo sapiens;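 also: reduction of A2058 cell growth, read out with a viability assay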
Description: SANGER: Inhibition of human A2058 cell growth in a cell viability assay.

[39] = system: A2780; experiment: cells; details: Homo sapiens;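 also: growth inhibition of A2780 cells, read out with a cell viability assay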
Description: SANGER: Inhibition of human A2780 cell growth in a cell viability assay.

[40] = system: A-427; experiment: cells; details: Homo sapiens;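 also: growth inhibition of human A-427 cells, read out by a cell viability assay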
Description: SANGER: Inhibition of human A427 cell growth in a cell viability assay.

[41] = system: A-431; experiment: cells; details: Homo sapiens;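 also: growth inhibition of A-431 cells, determined with a cell viability read-out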
Description: SANGER: Inhibition of human A431 cell growth in a cell viability assay.

[42] = system: AN3-CA; experiment: cells; details: Homo sapiens;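 also: growth inhibition of human AN3-CA cells measured by a cell viability assay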
Description: SANGER: Inhibition of human AN3-CA cell growth in a cell viability assay.

[43] = system: ASPC1; experiment: cells; details: Homo sapiens;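 also: growth inhibition of AsPC-1 cells, read out with a cell viability assay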
Description: SANGER: Inhibition of human AsPC-1 cell growth in a cell viability assay.

[44] = system: BCPAP; experiment: cells; details: Homo sapiens;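 also: growth inhibition of BCPAP cells, read out in a cell viability assay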
Description: SANGER: Inhibition of human BCPAP cell growth in a cell viability assay.

[45] = system: BEN; experiment: cells; details: Homo sapiens;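 also: growth inhibition of the BEN cell line, read out with a cell viability assay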
Description: SANGER: Inhibition of human BEN cell growth in a cell viability assay.

[46] = system: VM-CUB-1; experiment: cells; details: Homo sapiens;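 also: cell viability assay measuring growth inhibition of the human VM-CUB-1 cell line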
Description: SANGER: Inhibition of human VM-CUB-1 cell growth in a cell viability assay.

[47] = system: YKG-1; experiment: cells; details: Homo sapiens;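 also: cell growth inhibition, read out with a viability assay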
Description: SANGER: Inhibition of human YKG-1 cell growth in a cell viability assay.

[48] = system: COR-L279; experiment: SANGER: Inhibition of human COR-L279 cell growth in a cell viability assay.
[49] = system: Daudi; experiment: cells; details: Homo sapiens;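 also: growth inhibition of Daudi cells, read out by a viability assay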
Description: SANGER: Inhibition of human Daudi cell growth in a cell viability assay.

[50] = system: EB-3; experiment: cells; details: Homo sapiens;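 also: human EB-3 cells, growth inhibition read out via a cell viability assay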
Description: SANGER: Inhibition of human EB-3 cell growth in a cell viability assay.

[51] = system: KMS-12-PE; experiment: cells; details: Homo sapiens;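 also: growth inhibition of human KMS-12-PE cells, measured with a cell viability assay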
Description: SANGER: Inhibition of human KMS-12-PE cell growth in a cell viability assay.

[52] = system: L-540; experiment: cells; details: Homo sapiens;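 also: growth inhibition of the human L-540 cell line, read out with a viability assay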
Description: SANGER: Inhibition of human L-540 cell growth in a cell viability assay.

[53] = system: NALM-6; experiment: cells; details: Homo sapiens;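 also: growth inhibition of NALM-6 cells, read out with a cell viability assay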
Description: SANGER: Inhibition of human NALM-6 cell growth in a cell viability assay.

[54] = system: NCI-H1436; experiment: cells; details: Homo sapiens;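 also: growth suppression of human NCI-H1436 cells, determined with a cell viability readout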
Description: SANGER: Inhibition of human NCI-H1436 cell growth in a cell viability assay.

[55] = system: NCI-H2196; experiment: cells; details: Homo sapiens;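 also: cell viability assay used as the readout of growth inhibition in NCI-H2196 cells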
Description: SANGER: Inhibition of human NCI-H2196 cell growth in a cell viability assay.

[56] = system: NCI-H64; experiment: cells; details: Homo sapiens;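 also: growth inhibition of NCI-H64 cells, read out with a cell viability assay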
Description: SANGER: Inhibition of human NCI-H64 cell growth in a cell viability assay.

[57] = system: NCI-H716; experiment: cells; details: Homo sapiens;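 also: growth inhibition of human NCI-H716 cells, measured by a cell viability assay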
Description: SANGER: Inhibition of human NCI-H716 cell growth in a cell viability assay.

[58] = system: SCLC-21H; experiment: cells; details: Homo sapiens;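 also: growth inhibition of cultured human SCLC-21H cells, read out with a cell viability assay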
Description: SANGER: Inhibition of human SCLC-21H cell growth in a cell viability assay.

[59] = system: SIMA; experiment: cells; details: Homo sapiens;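 also: growth inhibition of SIMA cells, measured with a cell viability readout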
Description: SANGER: Inhibition of human SIMA cell growth in a cell viability assay.

[60] = system: SK-MM-2; experiment: cells; details: Homo sapiens;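 also: growth inhibition of human SK-MM-2 cells, read out with a cell viability assay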
Description: SANGER: Inhibition of human SK-MM-2 cell growth in a cell viability assay.

[61] = system: SNU-C1; experiment: cells; details: Homo sapiens;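 also: growth inhibition of SNU-C1 human cells, read out by a cell viability assay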
Description: SANGER: Inhibition of human SNU-C1 cell growth in a cell viability assay.

[62] = system: SR; experiment: cells; details: Homo sapiens
Description: SANGER: Inhibition of human SR cell growth in a cell viability assay.

[63] = system: ST486; experiment: SANGER: Inhibition of human ST486 cell growth in a cell viability assay.
[64] = system: BOKU; experiment: cells; details: Homo sapiens;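 also: growth inhibition of the human BOKU cell line, read out by a cell viability assay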
Description: SANGER: Inhibition of human BOKU cell growth in a cell viability assay.

[65] = system: TE-441-T; experiment: cells; details: Homo sapiens
Description: SANGER: Inhibition of human TE-441-T cell growth in a cell viability assay.

[66] = system: CMK; experiment: cells; details: Homo sapiens
Description: SANGER: Inhibition of human CMK cell growth in a cell viability assay.

For `O=c1cc(N2CCOCC2)oc2c(-c3cccc4c3sc3ccccc34)cccc12`, the IC50 [1] was over 2000 nM, the IC50 [2] was over 2000 nM and the IC50 [3] was over 2000 nM. For the same compound, the IC50 [4] was over 2000 nM, the IC50 [5] was over 2000 nM and the IC50 [6] was over 2000 nM. For the same compound, the IC50 [7] was over 2000 nM, the IC50 [8] was over 2000 nM and the IC50 [9] was over 2000 nM. The IC50 [10] was over 2000 nM, the IC50 [11] was over 2000 nM and the IC50 [12] was over 2000 nM. For the same compound, the IC50 [13] was over 2000 nM, the IC50 [14] was over 2000 nM and the IC50 [15] was over 2000 nM. For the same compound, the IC50 [16] was over 2000 nM, the IC50 [17] was over 2000 nM and the IC50 [18] was over 2000 nM. It also gave an IC50 [19] of over 2000 nM, an IC50 [20] of over 2000 nM and an IC50 [21] of over 2000 nM. It also gave an IC50 [22] of over 2000 nM, an IC50 [23] of 1460 nM and an IC50 [24] of over 2000 nM. The IC50 [25] was over 2000 nM, the IC50 [26] was over 2000 nM and the IC50 [27] was over 2000 nM. It also gave an IC50 [28] of over 2000 nM, an IC50 [29] of over 2000 nM and an IC50 [30] of over 2000 nM. For the same compound, the IC50 [31] was over 2000 nM, the IC50 [32] was over 2000 nM and the IC50 [33] was over 2000 nM. It also gave an IC50 [34] of over 2000 nM, an IC50 [35] of over 2000 nM and an IC50 [36] of over 2000 nM. It also gave an IC50 [37] of over 2000 nM, an IC50 [38] of over 2000 nM and an IC50 [39] of over 2000 nM. For the same compound, the IC50 [40] was over 2000 nM, the IC50 [41] was over 2000 nM and the IC50 [42] was over 2000 nM. The IC50 [43] was over 2000 nM, the IC50 [44] was over 2000 nM and the IC50 [45] was over 2000 nM. It also gave an IC50 [46] of over 2000 nM and an IC50 [47] of over 2000 nM.

Compound `Fc1cc(-c2cc[nH]/c(=N/c3ccc(-n4cnc(N5CCOCC5)n4)cc3)n2)cc(N2CCOCC2)c1` has an IC50 [1] of over 5120 nM, an IC50 [48] of 1130 nM and an IC50 [2] of 824 nM. The IC50 [3] was 1930 nM, the IC50 [4] was 105 nM and the IC50 [5] was 865 nM. For the same compound, the IC50 [49] was 381 nM, the IC50 [50] was 1830 nM and the IC50 [6] was 439 nM. The IC50 [7] was 1220 nM, the IC50 [8] was 2030 nM and the IC50 [9] was 1730 nM. For the same compound, the IC50 [10] was 617 nM, the IC50 [11] was 613 nM and the IC50 [12] was 223 nM. It also gave an IC50 [13] of 756 nM, an IC50 [14] of over 5120 nM and an IC50 [15] of 3260 nM. For the same compound, the IC50 [51] was 1160 nM, the IC50 [17] was 5100 nM and the IC50 [52] was 677 nM. For the same compound, the IC50 [18] was 127 nM, the IC50 [19] was 967 nM and the IC50 [20] was 1070 nM. The IC50 [21] was 190 nM, the IC50 [22] was 549 nM and the IC50 [53] was 214 nM. It also gave an IC50 [54] of 1180 nM, an IC50 [23] of 1210 nM and an IC50 [24] of 341 nM. It also gave an IC50 [55] of 786 nM, an IC50 [25] of 377 nM and an IC50 [26] of 337 nM. It also gave an IC50 [27] of 887 nM, an IC50 [28] of 544 nM and an IC50 [56] of 862 nM. The IC50 [57] was 3920 nM, the IC50 [29] was 208 nM and the IC50 [30] was 877 nM. For the same compound, the IC50 [58] was over 5120 nM, the IC50 [59] was 782 nM and the IC50 [60] was 1270 nM. For the same compound, the IC50 [31] was 2070 nM, the IC50 [32] was 1150 nM and the IC50 [61] was 390 nM. It also gave an IC50 [62] of 122 nM, an IC50 [63] of 190 nM and an IC50 [33] of 232 nM. It also gave an IC50 [34] of 1110 nM, an IC50 [35] of 623 nM and an IC50 [36] of 228 nM. It also gave an IC50 [37] of 397 nM, an IC50 [38] of 500 nM and an IC50 [39] of 653 nM. The IC50 [40] was 286 nM, the IC50 [41] was 249 nM and the IC50 [42] was 335 nM. For the same compound, the IC50 [43] was 3800 nM, the IC50 [44] was 932 nM and the IC50 [45] was 585 nM. It also gave an IC50 [64] of 3100 nM, an IC50 [65] of 316 nM and an IC50 [46] of 3480 nM. The IC50 [47] was 724 nM and the IC50 [66] was 545 nM.

In the case of `CCCS(=O)(=O)Nc1ccc(F)c(C(=O)c2c[nH]c3ncc(Cl)cc23)c1F` [PLX-4720], the IC50 [1] is reported as over 10000 nM, the IC50 [2] is reported as over 10000 nM and the IC50 [3] is reported as over 10000 nM. It also gave an IC50 [4] of over 10000 nM, an IC50 [5] of over 10000 nM and an IC50 [6] of 6220 nM. For the same compound, the IC50 [7] was over 10000 nM, the IC50 [8] was over 10000 nM and the IC50 [9] was over 10000 nM. The IC50 [10] was over 10000 nM, the IC50 [11] was over 10000 nM and the IC50 [12] was over 10000 nM. The IC50 [13] was over 10000 nM, the IC50 [14] was over 10000 nM and the IC50 [15] was over 10000 nM. For the same compound, the IC50 [16] was over 10000 nM, the IC50 [17] was over 10000 nM and the IC50 [18] was over 10000 nM. It also gave an IC50 [19] of over 10000 nM, an IC50 [20] of over 10000 nM and an IC50 [21] of 412 nM. It also gave an IC50 [22] of over 10000 nM, an IC50 [23] of over 10000 nM and an IC50 [24] of over 10000 nM. The IC50 [25] was 2920 nM, the IC50 [26] was over 10000 nM and the IC50 [27] was over 10000 nM. It also gave an IC50 [28] of over 10000 nM, an IC50 [29] of over 10000 nM and an IC50 [30] of over 10000 nM. The IC50 [31] was over 10000 nM, the IC50 [32] was over 10000 nM and the IC50 [33] was over 10000 nM. For the same compound, the IC50 [34] was over 10000 nM, the IC50 [35] was over 10000 nM and the IC50 [36] was over 10000 nM. It also gave an IC50 [37] of 5190 nM, an IC50 [38] of 4720 nM and an IC50 [39] of over 10000 nM. The IC50 [40] was over 10000 nM, the IC50 [41] was over 10000 nM and the IC50 [42] was over 10000 nM. It also gave an IC50 [43] of over 10000 nM, an IC50 [44] of 7220 nM and an IC50 [45] of over 10000 nM. The IC50 [46] was over 10000 nM and the IC50 [47] was over 10000 nM.
